Assay results: US7468375B2 (Pfizer Inc., priority 2004, dated 2008)
Read-outs that look alike come from different tables or passages of the source.

Tests used:
[1] = system: RF strain of HIV-1 in CEM-SS cells; assay: HIV-1 cell protection assay (XTT dye reduction); format: cell-based; settings: Human immunodeficiency virus 1, CEM-SS, 144 h
Method in brief: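 CEM-SS cells infected with HIV-1 RF (moi 0.025–0.819) or mock-infected, 2×10^4 cells/well with half-log compound dilutions for six days. Viability by XTT/PMS reduction (4 h), absorbance 450 nm, as % of uninfected untreated cells. Therapeutic index = CC50/EC50.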

[2] = target: T1, Full-length wild type HIV-1 integrase (SF1) (Human immunodeficiency virus type 1 group M subtype B, UniProt P04585); assay: Integrase strand-transfer scintillation proximity assay; format: biochemical; settings: 50 min at 37° C., 246 nM integrase, 50 nM host DNA
T1 construct: made in house; host or cells: E. coli BL21 (DE3)
Method in brief: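 Recombinant full-length wild-type HIV-1 integrase (aa 1-288), E. coli-expressed, tested on biotinylated pre-processed U5 LTR viral ds-DNA with CA overhang bound to streptavidin SPA beads. [3H]-thymidine-labelled host ds-DNA serves as target; strand transfer read by scintillation proximity. A 3′ di-deoxy viral DNA control checks non-specific binding.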

[3] = HIV-1 RF, CEM-SS cells, XTT dye reduction, six days, read-out: EC50
[4] = strand transfer, read-out: IC50

| SMILES | EC50 [1, 3] | IC50 [2, 4] | IC50 ([2]; IC50, strand transfer) | EC50 [1] |
| --- | --- | --- | --- | --- |
| O=C(NO)c1cc2c(CNCc3n[nH]c4c3CCC4)cn(Cc3ccc(F)cc3F)c2cn1 [Example 99, 1-(2,4-Difluorobenzyl)-N-hydroxy-3-{[(1,4,5,6-tetrahydrocyclopenta[c]pyrazol-3-ylmethyl)amino]methyl}-1H-pyrrolo[2,3-c]pyridine-5-carboxamide] | 31 nM | 277 nM | – | – |
| Cc1nnc(CCNCc2cn(Cc3ccc(F)cc3F)c3cnc(C(=O)NO)cc23)[nH]1 [Example 100, 1-(2,4-Difluorobenzyl)-N-hydroxy-3-({[2-(5-methyl-4H-1,2,4-triazol-3-yl)ethyl]amino}methyl)-1H-pyrrolo[2,3-c]pyridine-5-carboxamide] | 10000 nM | 270 nM | – | – |
| O=C(CC(NCc1cn(Cc2ccc(F)cc2F)c2cnc(C(=O)NO)cc12)C1CC1)NC1CC1 (centres unmarked) [Example 101, 3-({[1-Cyclopropyl-3-(cyclopropylamino)-3-oxopropyl]amino}methyl)-1-(2,4-difluorobenzyl)-N-hydroxy-1H-pyrrolo[2,3-c]pyridine-5-carboxamide] | 73 nM | 472 nM | – | – |
| O=C1CN(Cc2cn(Cc3ccc(F)cc3)c3cnc(C(=O)NOCc4ccccc4)cc23)CCN1 [Example 102, N-(Benzyloxy)-1-(4-fluorobenzyl)-3-[(3-oxopiperazin-1-yl)methyl]-1H-pyrrolo[2,3-c]pyridine-5-carboxamide] | 33 nM | 810 nM | – | – |
| C=CCONC(=O)c1cc2c(CN3CCNC(=O)C3)cn(Cc3ccc(F)cc3)c2cn1 [Example 103, N-(Allyloxy)-1-(4-fluorobenzyl)-3-[(3-oxopiperazin-1-yl)methyl]-1H-pyrrolo[2,3-c]pyridine-5-carboxamide] | 130 nM | 702 nM | – | – |
| O=C1CN(Cc2cn(Cc3ccc(F)cc3)c3cnc(C(=O)NOc4ccccc4)cc23)CCN1 [Example 104, 1-(4-Fluorobenzyl)-3-[(3-oxopiperazin-1-yl)methyl]-N-phenoxy-1H-pyrrolo[2,3-c]pyridine-5-carboxamide] | 4.45 nM | 182 nM | – | – |
| O=C(NO)c1cc2c(COC[C@@H](O)CO)cn(Cc3ccc(F)cc3F)c2cn1 [Example 106] | 66.3 nM | 12 nM | – | – |
| O=C(NO)c1cc2c(COC[C@H](O)CO)cn(Cc3ccc(F)cc3F)c2cn1 [Example 107, 1-(2,4-Difluorobenzyl)-3-({[(2S)-2,3-dihydroxypropyl]oxy}methyl)-hydroxy-1H-pyrrolo[2,3-c]pyridine-5-carboxamide] | 32.2 nM | – | 3.4 nM | – |
| COCCOCc1cn(Cc2ccc(F)cc2)c2cnc(C(=O)N(C)O)cc12 [Example 108, 1-(4-Fluorobenzyl)-N-hydroxy-3-[(2-methoxyethoxy)methyl]-N-methyl-1H-pyrrolo[2,3-c]pyridine-5-carboxamide] | – | 21.2 nM | – | 334 nM |
| COCCOCc1cn(Cc2ccc(F)cc2)c2cnc(C(=O)NOC)cc12 [Example 109, 1-(4-Fluorobenzyl)-N-methoxy-3-[(2-methoxyethoxy)methyl]-1H-pyrrolo[2,3-c]pyridine-5-carboxamide] | 313 nM | 63 nM | – | – |
| CN(O)C(=O)c1cc2c(COC[C@@H]3COC(C)(C)O3)cn(Cc3ccc(F)cc3)c2cn1 [Example 110, 3-({[(4R)-2,2-Dimethyl-1,3-dioxolan-4-yl]methoxy}methyl)-1-(4-fluorobenzyl)-N-hydroxy-N-methyl-1H-pyrrolo[2,3-c]pyridine-5-carboxamide] | – | 14 nM | – | 341 nM |
| CC1(C)OC[C@H](COCc2cn(Cc3ccc(F)cc3)c3cnc(C(=O)NO)cc23)O1 [Example 111, 3-({[(4S)-2,2-dimethyl-1,3-dioxolan-4-yl]methoxy}methyl)-1-(4-fluorobenzyl)-N-hydroxy-1H-pyrrolo[2,3-c]pyridine-5-carboxamide] | 77.4 nM | 20 nM | – | – |
| CN(O)C(=O)c1cc2c(CN3CC[C@H]4CNC(=O)[C@H]4C3)cn(Cc3ccc(F)cc3F)c2cn1 [Example 113] | 437 nM | 40 nM | – | – |
| CN(O)C(=O)c1cc2c(CN3CCNC(=O)C3)cn(Cc3ccc(F)cc3)c2cn1 [Example 114, 1-(4-fluorobenzyl)-N-hydroxy-N-methyl-3-[(3-oxopiperazin-1-yl)methyl]-1H-pyrrolo[2,3-c] pyridine-5-carboxamide] | – | 150 nM | – | 351 nM |
| CN(O)C(=O)c1cc2c(COCCN3CCCC3=O)cn(Cc3ccc(F)cc3)c2cn1 [Example 117, 1-(4-Fluorobenzyl)-N-hydroxy-N-methyl-3-{[2-(2-oxopyrrolidin-1-yl)ethoxy]methyl}-1H-pyrrolo[2,3-c]pyridine-5-carboxamide] | 401 nM | 200 nM | – | – |
| CN(O)C(=O)c1cc2c(COC3CCOCC3)cn(Cc3ccc(F)cc3)c2cn1 [Example 118, 1-(4-Fluorobenzyl)-N-hydroxy-N-methyl-3-[(tetrahydro-2H-pyran-4-yloxy)methyl]-1H-pyrrolo[2,3-c]pyridine-5-carboxamide] | 313 nM | 57 nM | – | – |
| C[C@@H](OCc1cn(Cc2ccc(F)cc2)c2cnc(C(=O)N(C)O)cc12)c1ccccc1 [Example 119, 1-(4-Fluorobenzyl)-N-hydroxy-N-methyl-3-{[(1R)-1-phenylethoxy]methyl}-1H-pyrrolo[2,3-c]pyridine-5-carboxamide] | 505 nM | 39 nM | – | – |
| CCOCCOCc1cn(Cc2ccc(F)cc2)c2cnc(C(=O)N(C)O)cc12 [Example 120, 3-[(2-ethoxyethoxy)methyl]-1-(4-fluorobenzyl)-N-hydroxy-N-methyl-1H-pyrrolo[2,3-c]pyridine-5-carboxamide] | 307 nM | 57 nM | – | – |
| COCCOCc1cn(Cc2ccc(F)cc2F)c2cnc(C(=O)N(C)O)cc12 [Example 123, 1 (2,4-Difluorobenzyl)-N-hydroxy-3-[(2-methoxyethoxy)methyl]-N-methyl-1H-pyrrolo[2,3-c]pyridine-5-carboxamide] | – | 51 nM | – | 519 nM |
